One experiment has as its target T1, recombinant human WRN (Homo sapiens, UniProt Q14191).
T1 construct: purchased BPS 101264
Nature of the experiment: Inhibition of WRN enzyme activity (ATPase), ADP-Glo Kinase Assay. It counts as biochemical. As to conditions: WRN protein 5 nM, Flap 0.1 nM, ATP 30 µM; read-out: IC50. The gist of the method: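 ATPase activity was measured by ADP-Glo luminescence after a 10-min room-temperature reaction with 30 µM ATP and 0.1 nM Flap26 oligonucleotide substrate. The 5 nM WRN had first been exposed to compound (0.004–1000 nM) for 15 min in pH 7.5 Tris buffer with 2 mM MgCl2. IC50 values came from log-concentration regression against the DMSO control.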
A general note: ADP-Glo turns the ADP formed in a reaction into a luminescent signal.

Another experiment has as its system SW48 cells. Nature of the experiment: Inhibition of SW48 cell proliferation (CellTiter-Glo). The experiment is classed as cell-based. As to conditions: Homo sapiens; SW48 cells (MSI-H), 120 hours. The procedure:
The following method was used to determine the effect of the compounds of the present disclosure on SW48 cell proliferation. SW48 cells (MSI-H cells) were purchased from American ATCC cell bank and cultured in Leibovitz's L-15 medium (Gibco, catalog No. 11415064) containing 10% fetal bovine serum, 100 U penicillin, and 100 µg/mL streptomycin. Cell viability was determined by CellTiter-Glo® Luminescent Cell Viability Assay kit (Promega, catalog No. G7573).
(§1) The experiment was performed according to the steps of the kit manual, which is briefly described as follows: test compounds were first dissolved in DMSO to prepare 10 mM stock solutions, and then diluted with medium to prepare test samples, with final compound concentrations ranging from 10000 nM to 1.52 nM. Cells in logarithmic growth phase were seeded into 96-well cell culture plates at a density of 500 cells per well and cultured overnight at 37 °C in an air incubator, then test compounds were added and cultivation continued for 120 hours. After the cultivation was completed, 40 µL of CellTiter-Glo detection reagent was added to each well, shaken for 5 minutes, and then left to stand for 10 minutes. Luminescence values of each well were read on a microplate reader using Luminescence mode. The percentage inhibition at each concentration point was calculated by comparison with the control group (0.1% DMSO), and then IC50 values for the compounds for inhibition of cell proliferation were obtained using nonlinear regression analysis of compound concentration logarithm versus inhibition rate in GraphPad Prism 9 software, as shown in Table 2.
The IC50 value results of the compounds of the present disclosure are represented by A, wherein "A" indicates 1 nM < IC50 ≤ 100 nM. Table 2 IC50 data for inhibition of SW48 cell proliferation by the compounds of the present disclosure

A further experiment concerns RL95-2 cells. Nature of the experiment: Inhibition of RL95-2 cell proliferation (CellTiter-Glo). It counts as cell-based. To be noted: Homo sapiens; RL95-2 cells (MSI-H), 120 hours. The protocol:
The following method was used to determine the effect of the compounds of the present disclosure on RL95-2 cell proliferation. RL95-2 cells (MSI-H cells) were purchased from Cell Resource Center of Shanghai Institutes for Biological Sciences, Chinese Academy of Sciences, and cultured in DMEM/F12 medium (Gibco, catalog No. A4192001) containing 10% fetal bovine serum, 100 U penicillin, and 100 µg/mL streptomycin. Cell viability was determined by CellTiter-Glo® Luminescent Cell Viability Assay kit (Promega, catalog No. G7573).
as §1, with “a 5% CO2” for “an air”, “incubator, and” for “incubator,”, “50” for “40”, “3.” for “2.”
The IC50 value results of the compounds of the present disclosure are represented by A, wherein "A" indicates 1 nM < IC50 ≤ 100 nM. Table 3 IC50 data for inhibition of RL95-2 cell proliferation by the compounds of the present disclosure
(In general: ATP-based viability assays read luminescence as a measure of living cells.)

T1 sequence (Q14191 whole entry): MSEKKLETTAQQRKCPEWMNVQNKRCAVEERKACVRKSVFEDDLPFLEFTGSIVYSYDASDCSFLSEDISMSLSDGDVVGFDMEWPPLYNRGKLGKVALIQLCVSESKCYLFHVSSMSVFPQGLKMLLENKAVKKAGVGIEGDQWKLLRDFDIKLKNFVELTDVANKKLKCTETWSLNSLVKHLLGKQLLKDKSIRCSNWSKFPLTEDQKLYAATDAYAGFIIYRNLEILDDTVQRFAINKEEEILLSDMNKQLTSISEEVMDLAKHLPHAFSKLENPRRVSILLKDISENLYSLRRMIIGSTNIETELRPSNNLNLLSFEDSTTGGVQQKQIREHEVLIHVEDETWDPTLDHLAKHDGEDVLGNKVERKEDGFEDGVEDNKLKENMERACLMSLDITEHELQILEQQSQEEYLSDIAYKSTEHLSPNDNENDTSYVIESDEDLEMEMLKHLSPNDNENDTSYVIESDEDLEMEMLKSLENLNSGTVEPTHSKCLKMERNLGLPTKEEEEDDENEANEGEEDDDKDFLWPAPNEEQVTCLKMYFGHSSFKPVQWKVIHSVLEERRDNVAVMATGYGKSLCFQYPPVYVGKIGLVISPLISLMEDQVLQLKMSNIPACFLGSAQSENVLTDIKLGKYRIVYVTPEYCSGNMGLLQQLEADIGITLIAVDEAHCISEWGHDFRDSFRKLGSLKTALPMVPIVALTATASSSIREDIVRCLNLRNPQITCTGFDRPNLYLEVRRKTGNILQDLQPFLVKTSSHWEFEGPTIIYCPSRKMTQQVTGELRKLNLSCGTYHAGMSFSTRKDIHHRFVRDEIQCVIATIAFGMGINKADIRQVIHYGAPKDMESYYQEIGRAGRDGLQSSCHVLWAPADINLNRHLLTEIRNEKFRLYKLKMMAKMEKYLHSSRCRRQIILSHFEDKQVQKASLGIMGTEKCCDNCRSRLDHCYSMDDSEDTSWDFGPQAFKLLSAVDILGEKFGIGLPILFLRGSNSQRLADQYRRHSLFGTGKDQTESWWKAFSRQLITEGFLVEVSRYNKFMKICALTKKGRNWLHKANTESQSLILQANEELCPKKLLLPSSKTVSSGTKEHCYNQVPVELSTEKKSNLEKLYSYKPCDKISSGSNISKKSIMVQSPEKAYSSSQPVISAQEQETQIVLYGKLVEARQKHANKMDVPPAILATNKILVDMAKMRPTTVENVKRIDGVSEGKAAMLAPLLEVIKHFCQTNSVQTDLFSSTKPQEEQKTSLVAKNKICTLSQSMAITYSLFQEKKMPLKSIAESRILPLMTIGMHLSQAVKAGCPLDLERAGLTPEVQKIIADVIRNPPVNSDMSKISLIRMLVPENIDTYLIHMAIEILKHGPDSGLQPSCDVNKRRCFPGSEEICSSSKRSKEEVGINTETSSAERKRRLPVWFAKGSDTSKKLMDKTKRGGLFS

What is called IC50 is the point on the concentration scale where inhibition reaches its midpoint. With `CCc1c(N2CCN(C(=O)c3ncnc(C)c3O)CC2)c(=O)n2nc(C=C3CCC3)nc2n1CC(=O)Nc1ccc(C(F)(F)F)cc1Cl` [Example 33, N-(2-chloro-4-(trifluoromethyl)phenyl)-2-(2-(cyclobutylidenemethyl)-5-ethyl-6-(4-(5-hydroxy-6-methylpyrimidine-4-carbonyl)piperazin-1-yl)-7-oxo-[1,2,4]triazolo[1,5-a]pyrimidin-4(7H)-yl) acetamide], the half-maximal inhibitory concentration (IC50) at recombinant human WRN is below 1 nM; in the experiment with SW48 cells it was 1 to 100 nM.
Take `CCc1c(N2CCN(C(=O)c3ncccc3O)CC2)c(=O)n2nc(C=C3CCC3)nc2n1CC(=O)Nc1ccc(S(F)(F)(F)(F)F)cc1` [Example 52, 2-(2-(cyclobutylidenemethyl)-5-ethyl-6-(4-(3-hydroxypicolinoyl)piperazin-1-yl)-7-oxo-[1,2,4]triazolo[1,5-a]pyrimidin-4(7H)-yl)-N-(4-(pentafluoro-λ^6-sulfaneyl)phenyl)acetamide]: the 50% inhibitory concentration (IC50) at recombinant human WRN is below 1 nM; with SW48 cells, 1 to 100 nM.
Take `CCc1c(N2CCN(C(=O)c3ncnc(C)c3O)CC2)c(=O)n2nc(-c3ccc4c(c3)CCO4)nc2n1CC(=O)Nc1ccc(S(F)(F)(F)(F)F)cc1Cl` [Example 87, N-(2-chloro-4-(pentafluoro-λ^6-sulfaneyl)phenyl)-2-(2-(2,3-dihydrobenzofuran-5-yl)-5-ethyl-6-(4-(5-hydroxy-6-methylpyrimidine-4-carbonyl)piperazin-1-yl)-7-oxo-[1,2,4]triazolo[1,5-a]pyrimidin-4(7H)-yl)acetamide]: the IC50 at recombinant human WRN and in the experiment on SW48 cells was 1 to 100 nM in each case.
For the molecule `CCc1c(C2=CCN(C(=O)c3ncnc(C)c3O)CC2)c(=O)n2nc(C3=CCCCCC3)nc2n1CC(=O)Nc1ccc(S(F)(F)(F)(F)F)cc1` [Example 91, 2-(2-(cyclohept-1-en-1-yl)-5-ethyl-6-(1-(5-hydroxy-6-methylpyrimidine-4-carbonyl)-1,2,3,6-tetra hydropyridin-4-yl)-7-oxo-[1,2,4]triazolo[1,5-a]pyrimidin-4(7H)-yl)-N-(4-(pentafluoro-λ^6-sulfaneyl)phenyl)acetamide], the concentration for half-maximal inhibition (IC50) at recombinant human WRN and in the experiment on SW48 cells was 1 to 100 nM each time.
As for `CCc1c(N2CCN(C(=O)c3ncnc(C)c3O)CC2)c(=O)n2nc(-c3cc4ccccc4o3)nc2n1CC(=O)Nc1ccc(S(F)(F)(F)(F)F)cc1` [Example 96, 2-(2-(benzofuran-2-yl)-5-ethyl-6-(4-(5-hydroxy-6-methylpyrimidine-4-carbonyl)piperazin-1-yl)-7-oxo-[1,2,4]triazolo[1,5-a]pyrimidin-4(7H)-yl)-N-(4-(pentafluoro-λ^6-sulfaneyl)phenyl)acetamide], the half-maximal inhibitory concentration (IC50) on recombinant human WRN and with SW48 cells was 1 to 100 nM throughout.
`CCc1c(N2CCN(C(=O)c3ncccc3O)CC2)c(=O)n2nc(-c3ccc4c(c3)CCO4)nc2n1CC(=O)Nc1ccc(C(F)(F)F)cc1Cl` [Example 104, N-(2-chloro-4-(trifluoromethyl)phenyl)-2-(2-(2,3-dihydrobenzofuran-5-yl)-5-ethyl-6-(4-(3-hydroxypicolinoyl)piperazin-1-yl)-7-oxo-[1,2,4]triazolo[1,5-a]pyrimidin-4(7H)-yl)acetamide]: the 50% inhibitory concentration (IC50) at recombinant human WRN and in the experiment on SW48 cells was 1 to 100 nM in each case.
On to `CCc1c(N2CCN(C(=O)c3nc(C)ccc3O)CC2)c(=O)n2nc(-c3ccc4c(c3)CCO4)nc2n1CC(=O)Nc1ccc(C(F)(F)F)cc1Cl` [Example 105, N-(2-chloro-4-(trifluoromethyl)phenyl)-2-(2-(2,3-dihydrobenzofuran-5-yl)-5-ethyl-6-(4-(3-hydroxy-6-methylpicolinoyl)piperazin-1-yl)-7-oxo-[1,2,4]triazolo[1,5-a]pyrimidin-4(7H)-yl)a cetamide], for which the IC50 at recombinant human WRN and in the experiment on SW48 cells was 1 to 100 nM each time.
As to `CCc1c(N2CCN(C(=O)c3ncncc3O)CC2)c(=O)n2nc(-c3ccc4c(c3)CCO4)nc2n1CC(=O)Nc1ccc(C(F)(F)F)cc1Cl` [Example 151, N-(2-chloro-4-(trifluoromethyl)phenyl)-2-(2-(2,3-dihydrobenzofuran-5-yl)-5-ethyl-6-(4-(5-hydroxypyrimidine-4-carbonyl)piperazin-1-yl)-7-oxo-[1,2,4]triazolo[1,5-a]pyrimidin-4(7H)-yl)acetamide], the 50% inhibitory concentration (IC50) at recombinant human WRN and in the experiment on SW48 cells was 1 to 100 nM throughout.
On to `Cc1ncnc(C(=O)N2CCN(c3c(C4CCC4)n(CC(=O)Nc4ccc(C(F)(F)F)cc4Cl)c4nc(-c5ccc6c(c5)CCO6)nn4c3=O)CC2)c1O` [Example 155, N-(2-chloro-4-(trifluoromethyl)phenyl)-2-(5-cyclobutyl-2-(2,3-dihydrobenzofuran-5-yl)-6-(4-(5-hydroxy-6-methylpyrimidine-4-carbonyl)piperazin-1-yl)-7-oxo-[1,2,4]triazolo[1,5-a]pyrimidin-4(7H)-yl)acetamide], for which the half-maximal inhibitory concentration (IC50) on recombinant human WRN and with SW48 cells was 1 to 100 nM in each case.
As for `CCc1c(N2CCN(C(=O)c3ncnc(C)c3O)CC2)c(=O)n2nc(C3=CC4CC4C3)nc2n1CC(=O)Nc1ccc(S(F)(F)(F)(F)F)cc1Cl` (centres unmarked) [Example 167, 2-(2-(bicyclo[3.1.0]hex-2-en-3-yl)-5-ethyl-6-(4-(5-hydroxy-6-methylpyrimidine-4-carbonyl)piperazin-1-yl)-7-oxo-[1,2,4]triazolo[1,5-a]pyrimidin-4(7H)-yl)-N-(2-chloro-4-(pentafluoro-λ^6-sulfaneyl)phenyl)acetamide], the IC50 on recombinant human WRN and in the experiment with RL95-2 cells was 1 to 100 nM in each case.
Take `[2H]c1cc2cc(-c3nc4n(CC(=O)Nc5ccc(C(F)(F)F)cc5Cl)c(CC)c(N5CCN(C(=O)c6ncnc(C)c6O)CC5)c(=O)n4n3)ccc2s1` [Example 169, 2-(2-(benzo[b]thiophen-5-yl-2-d)-5-ethyl-6-(4-(5-hydroxy-6-methylpyrimidine-4-carbonyl)piperazin-1-yl)-7-oxo-[1,2,4]triazolo[1,5-a]pyrimidin-4(7H)-yl)-N-(2-chloro-4-(trifluoromethyl)phenyl) acetamide]: the IC50 at recombinant human WRN and in the experiment with SW48 cells was 1 to 100 nM each time.
`[2H]c1sc2ccc(-c3nc4n(CC(=O)Nc5ccc(C(F)(F)F)cc5Cl)c(CC)c(N5CCN(C(=O)c6ncnc(C)c6O)CC5)c(=O)n4n3)cc2c1[2H]` [Example 170, 2-(2-(benzo[b]thiophen-5-yl-2,3-d2)-5-ethyl-6-(4-(5-hydroxy-6-methylpyrimidine-4-carbonyl)piperazin-1-yl)-7-oxo-[1,2,4]triazolo9[1,5-a]pyrimidin-4(7H)-yl)-N-(2-chloro-4-(trifluoromethyl)phenyl)acetamide]: the IC50 at recombinant human WRN and in the experiment with SW48 cells was 1 to 100 nM throughout.
Take `CCc1c(N2CCN(C(=O)c3ncnc(C)c3O)CC2)c(=O)n2nc(C3=CCC4(CC3)CC4)nc2n1CC(=O)Nc1ccc(S(F)(F)(F)(F)F)cc1Cl` [Example 174, N-(2-chloro-4-(pentafluoro-λ^6-sulfaneyl)phenyl)-2-(5-ethyl-6-(4-(5-hydroxy-6-methylpyrimidine-4-carbonyl)piperazin-1-yl)-7-oxo-2-(spiro[2.5]oct-5-en-6-yl)-[1,2,4]triazolo[1,5-a]pyrimidin-4(7 H)-yl)acetamide]: the IC50 at recombinant human WRN and in the experiment on SW48 cells was 1 to 100 nM each time.

The values above are taken from EP4800015A1, “AZABICYCLO DERIVATIVE AND PREPARATION METHOD THEREFOR, AND USE” (Zhejiang Hisun Pharmaceutical Co., Ltd., priority 2023, dated 2025).
